Measured values published in publication PMC11279465, “Dual Inhibitors of P-gp and Carbonic Anhydrase XII (hCA XII) against Tumor Multidrug Resistance with Piperazine Scaffold” (Molecules, 2024).

Key:
A549/DOX cells [1] = assay: Membrane fluidity; assay type: cell-based, human; conditions: 1 µM
Procedure: (§1) Membrane fluidity was measured fluorometrically using the Membrane Fluidity Kit, Abcam, according to the manufacturer’s instructions.

HT29/DOX cells [2] = assay: Membrane fluidity; assay type: cell-based, human; conditions: 1 µM
Procedure: as §1

P-gp [3] = molecular target: T1, P-gp (Homo sapiens, UniProt P08183); assay: Calcein-AM transport inhibition in MDCK-MDR1 cells; assay type: cell-based; set-up: expressed in transfected cells; host or cells: MDCK (Madin-Darby Canine Kidney); conditions: mean ± SEM
T1 sequence (P08183 whole entry): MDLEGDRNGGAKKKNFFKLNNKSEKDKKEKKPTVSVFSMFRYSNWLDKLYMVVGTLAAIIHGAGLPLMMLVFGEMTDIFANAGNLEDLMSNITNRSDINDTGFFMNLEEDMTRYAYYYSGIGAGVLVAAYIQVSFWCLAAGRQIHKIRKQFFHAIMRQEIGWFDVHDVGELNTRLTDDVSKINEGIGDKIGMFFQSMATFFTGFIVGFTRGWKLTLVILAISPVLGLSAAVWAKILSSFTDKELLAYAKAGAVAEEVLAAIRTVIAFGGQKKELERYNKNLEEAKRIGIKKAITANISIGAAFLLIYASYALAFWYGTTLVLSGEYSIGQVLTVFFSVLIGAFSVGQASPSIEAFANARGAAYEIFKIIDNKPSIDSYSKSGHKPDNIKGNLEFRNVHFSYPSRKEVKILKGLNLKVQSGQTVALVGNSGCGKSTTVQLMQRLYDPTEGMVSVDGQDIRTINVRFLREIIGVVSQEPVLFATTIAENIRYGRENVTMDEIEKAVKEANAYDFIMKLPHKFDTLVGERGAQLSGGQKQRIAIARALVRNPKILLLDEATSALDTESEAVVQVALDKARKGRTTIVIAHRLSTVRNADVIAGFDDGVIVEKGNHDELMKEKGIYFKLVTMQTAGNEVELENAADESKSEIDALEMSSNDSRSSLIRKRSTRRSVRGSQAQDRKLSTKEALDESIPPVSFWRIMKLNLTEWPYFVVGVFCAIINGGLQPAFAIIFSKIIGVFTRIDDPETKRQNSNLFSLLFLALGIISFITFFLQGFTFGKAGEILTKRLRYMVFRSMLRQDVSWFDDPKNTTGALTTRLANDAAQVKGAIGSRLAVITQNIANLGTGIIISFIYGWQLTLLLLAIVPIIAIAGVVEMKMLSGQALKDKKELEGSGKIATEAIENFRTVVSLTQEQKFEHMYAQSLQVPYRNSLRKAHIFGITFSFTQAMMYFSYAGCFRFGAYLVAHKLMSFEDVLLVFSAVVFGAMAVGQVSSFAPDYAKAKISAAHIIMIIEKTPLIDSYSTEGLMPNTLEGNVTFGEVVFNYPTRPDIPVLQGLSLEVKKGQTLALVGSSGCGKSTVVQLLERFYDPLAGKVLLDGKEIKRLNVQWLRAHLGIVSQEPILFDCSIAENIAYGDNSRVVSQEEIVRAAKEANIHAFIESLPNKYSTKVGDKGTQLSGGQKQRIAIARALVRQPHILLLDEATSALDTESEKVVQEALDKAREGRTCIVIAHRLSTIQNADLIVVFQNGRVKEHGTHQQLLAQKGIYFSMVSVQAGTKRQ
Text: The MDR interaction potency of these compounds was studied by detecting the inhibition of the P-gp-, MRP1- or BCRP-mediated efflux of a substrate in cells overexpressing the studied pumps. In detail, we measured the following: (i) the transport inhibition of the profluorescent probe calcein-AM (P-gp and MRP1 substrate) in MDCK-MDR1 and MDCK-MRP1 cells (P-gp- and MRP1-overexpressing cells, respectively); (ii) the transport inhibition of the fluorescent probe Hoechst 33342 (BCRP substrate) in MDCK-BCRP cells (BCRP-overexpressing cells).
Experiments were performed as previously described. MDCK-MDR1 and MDCK-MRP1 cells (30,000 cells per well) were seeded in a 96-well black CulturePlate in 100 µL of medium and allowed to grow overnight in a humidified atmosphere of 5% CO2 at 37 °C. Tested compounds (100 µL) in a final concentration ranging between 0.01 nM and 100 µM, solubilized in culture medium, were added to the monolayers. After 30 min in a humidified atmosphere of 5% CO2 at 37 °C, 100 µL of Calcein-AM in phosphate-buffered saline (PBS) was added to obtain a final concentration of 2.5 µM and the plate was incubated for 30 min. All wells were washed 3 times with 100 µL ice-cold PBS and read with Victor3 (PerkinElmer) after adding 100 µL of cold PBS. Excitation and emission wavelengths of 485 nm and 535 nm, respectively, were used. In these experimental conditions, cell Calcein-AM accumulation in the absence and in the presence of each tested compound was evaluated and compared to the basal level of fluorescence derived from untreated cells. The increase in fluorescence from the baseline level was measured in the treated wells. EC50 values were determined by fitting the rate of fluorescence increase versus log[dose].

A549/DOX cells [4] = assay: Intrinsic cytotoxicity (MTT); assay type: cell-based, human; conditions: 48 h; for toxicity: compound alone at 1 µM, A549/DOX; for more cytotoxic in resistant cells than in parental sensitive cells: compound alone, 1 µM, A549/DOX vs A549
Summary of the method: (§2)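 Resistant HT29/DOX and A549/DOX cells exposed for 48 h to compounds from 10 nM to 50 µM; viability measured by MTT. Growth expressed as percentage of untreated control.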

HT29/DOX cells [5] = assay: Intrinsic cytotoxicity (MTT); assay type: cell-based, human; conditions: 48 h; for toxicity: compound alone at 1 µM, HT29/DOX; for more cytotoxic in resistant cells than in parental sensitive cells: compound alone, 1 µM, HT29/DOX vs HT29
Summary of the method: as §2

hCA II = molecular target: T2, hCA II (Homo sapiens, UniProt P00918); assay: CA inhibition, stopped-flow CO2 hydrase assay; assay type: biochemical; conditions: stopped-flow technique; incubation time 6 h; mean of 3 assays
T2 construct: made in house
Summary of the method: (§3)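 Stopped-flow CO2 hydration used saturated CO2 solutions at 25 °C as substrate. Enzyme and inhibitor (10 μM stocks in DMSO-water, diluted down to 0.01 nM) were preincubated for 6 h at room temperature.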

hCA XII = molecular target: T3, hCA XII (Homo sapiens, UniProt O43570); assay: CA inhibition, stopped-flow CO2 hydrase assay; assay type: biochemical; conditions: stopped-flow technique; incubation time 6 h; mean of 3 assays
T3 construct: made in house
T3 sequence (O43570 25-354): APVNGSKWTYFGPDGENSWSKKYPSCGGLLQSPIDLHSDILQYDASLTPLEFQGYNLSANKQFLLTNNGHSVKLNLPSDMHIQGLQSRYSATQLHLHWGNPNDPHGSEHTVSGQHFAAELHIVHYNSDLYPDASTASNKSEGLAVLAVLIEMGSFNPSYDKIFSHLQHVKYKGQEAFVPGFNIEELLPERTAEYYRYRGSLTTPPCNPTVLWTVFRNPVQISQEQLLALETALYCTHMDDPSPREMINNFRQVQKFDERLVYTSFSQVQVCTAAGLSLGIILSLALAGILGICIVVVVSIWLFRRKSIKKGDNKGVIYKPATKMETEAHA
Summary of the method: as §3

hCA I = molecular target: T4, hCA I (Homo sapiens, UniProt P00915); assay: CA inhibition, stopped-flow CO2 hydrase assay; assay type: biochemical; conditions: stopped-flow technique; incubation time 6 h; mean of 3 assays
T4 construct: made in house
T4 sequence (P00915 whole entry): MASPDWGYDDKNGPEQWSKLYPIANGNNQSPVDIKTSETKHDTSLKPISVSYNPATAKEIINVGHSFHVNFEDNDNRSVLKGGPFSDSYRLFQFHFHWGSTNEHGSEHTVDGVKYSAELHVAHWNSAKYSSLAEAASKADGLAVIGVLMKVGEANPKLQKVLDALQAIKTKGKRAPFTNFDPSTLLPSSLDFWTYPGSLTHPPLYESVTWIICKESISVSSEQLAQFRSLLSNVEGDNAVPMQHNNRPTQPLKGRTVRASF
Summary of the method: as §3

hCA IX = molecular target: T5, hCA IX (Homo sapiens, UniProt Q16790); assay: CA inhibition, stopped-flow CO2 hydrase assay; assay type: biochemical; conditions: stopped-flow technique; incubation time 6 h; mean of 3 assays
T5 construct: made in house
Summary of the method: as §3

P-gp [6] = molecular target: T1, P-gp; assay: P-gp ATPase activity (HT29/DOX cells); assay type: biochemical; set-up: endogenous in cells; host or cells: HT29/DOX (A27) and A549/DOX (A28); conditions: 1 µM, compared with HT29
Procedure: (§4) Plasma-membrane vesicles enriched with P-gp were prepared by sequential centrifugation as detailed previously. The ATPase activity of immunopurified P-gp was evaluated spectrophotometrically by measuring the absorbance of the phosphate hydrolyzed from ATP at 620 nm, using a Synergy HT Multi-Detection Microplate Reader (Bio-Tek Instruments). The absorbance was converted into μmol hydrolyzed phosphate/min/mg proteins, according to the titration curve previously prepared.

A549/DOX cells [7] = assay: ROS measurement (DCFDA-AM); assay type: cell-based, human; conditions: 1 µM
Procedure: (§5) Selected compounds have been tested for their cytotoxic activity at 24 h on HT29/DOX and A549/DOX cells and on the parental HT29 and A549 cells by MTT assay. To evaluate the mechanisms involved in CS, reactive oxygen species (ROS) were measured using the fluorescent probe 5-(and-6)-chloromethyl-2′,7′-dichlorodihydro-fluorescein diacetate-acetoxymethyl ester (DCFDA-AM), as previously reported. The results were expressed as nmol/mg cellular proteins. The amount of TBARS, as an index of lipoperoxidation, was measured with the Lipid Peroxidation (4-HNE) Assay Kit (Abcam, Cambridge, UK) that evaluates the 4-hydroxy-nonenale, one of the TBARS Results were expressed as nmoles/mg mitochondrial protein.

HT29/DOX cells [8] = assay: ROS measurement (DCFDA-AM); assay type: cell-based, human; conditions: 1 µM
Procedure: as §5

P-gp [9] = molecular target: T1, P-gp; assay: P-gp ATPase activity (A549/DOX cells); assay type: biochemical; set-up: endogenous in cells; host or cells: HT29/DOX (A27) and A549/DOX (A28); conditions: 1 µM, compared with A549
Procedure: as §4

Compound	membrane fluidity (A549/DOX cells [1])	membrane fluidity (HT29/DOX cells [2])	EC50 (P-gp [3]) [nM]	toxicity (A549/DOX cells [4]) [%]	more cytotoxic in resistant cells than in parental sensitive cells (A549/DOX cells [4])	toxicity (HT29/DOX cells [5]) [%]	more cytotoxic in resistant cells than in parental sensitive cells (HT29/DOX cells [5])	Ki (hCA II) [nM]	Ki (hCA XII) [nM]	Ki (hCA I) [nM]	Ki (hCA IX) [nM]	P-gp catalytic activity (P-gp [6])	increase of ROS levels compared to the control (A549/DOX cells [7])	increase of ROS levels compared to the control (HT29/DOX cells [8])	P-gp catalytic activity (P-gp [9])
COc1ccc(C(CCCN2CCN(CCCCOc3ccc4ccc(=O)oc4c3)CC2)c2ccc(OC)cc2)cc1 [Compound 27, 7-(4-(4-(4,4-Bis(4-methoxyphenyl)butyl)piperazin-1-yl)butoxy)-2H-chromen-2-one]	increased membrane fluidity	increased membrane fluidity	3990 ± 110	≥ 35	15%-20%	≥ 35	15%-20%	> 10000	92.1	> 10000	145	lowered the catalytic efficacy of P-gp in resistant cells to levels comparable to drug-sensitive HT29 and A549 cells	7–8 times	3–4 times	lowered the catalytic efficacy of P-gp in resistant cells to levels comparable to drug-sensitive HT29 and A549 cells
COc1ccc(C(CCCN2CCN(CCCOc3ccc4oc(=O)ccc4c3)CC2)c2ccc(OC)cc2)cc1 [Compound 32, 6-(3-(4-(4,4-Bis(4-methoxyphenyl)butyl)piperazin-1-yl)propoxy)-2H-chromen-2-one]	increased membrane fluidity	increased membrane fluidity	4530 ± 170	≥ 35	15%-20%	≥ 35	15%-20%	> 10000	71.5	> 10000	89.6	lowered the catalytic efficacy of P-gp in resistant cells to levels comparable to drug-sensitive HT29 and A549 cells	7–8 times	3–4 times	lowered the catalytic efficacy of P-gp in resistant cells to levels comparable to drug-sensitive HT29 and A549 cells
